Source: the NIST ThermoML archive (doi:10.1016/j.jct.2013.04.021)
± gives the expanded uncertainty stated by the source.

Assay: xn = mol fraction of the nth substance listed
Settings: 101 kPa, Liquid; for mass density: Vibrating tube method; for speed of sound: fixed-path interferometer; for viscosity: Capillary tube (Ostwald / Ubbelohde) method

CCCCOCCO [2-butoxyethan-1-ol] + CCCCCCCCO
Settings	mass density, 303.15 K [kg/m3]	mass density, 308.15 K [kg/m3]	mass density, 313.15 K [kg/m3]	speed of sound, 303.15 K [m/s]	speed of sound, 308.15 K [m/s]	speed of sound, 313.15 K [m/s]	viscosity, 308.15 K [mPa·s]
x1 = 0.053	–	818.004 ± 0.24	814.437 ± 0.24	1328.1 ± 1.6	1311.3 ± 1.5	1294.9 ± 1.5	5.048 ± 0.11
x1 = 0.1049	–	–	–	–	–	–	4.78 ± 0.11
x1 = 0.105	–	821.021 ± 0.24	817.45 ± 0.24	1325.4 ± 1.6	1308.8 ± 1.5	1292.3 ± 1.5	–
x1 = 0.167	–	824.71 ± 0.24	821.134 ± 0.24	1321.7 ± 1.6	1305.5 ± 1.5	1289.2 ± 1.5	4.442 ± 0.098
x1 = 0.2004	–	826.746 ± 0.24	823.153 ± 0.24	1319.7 ± 1.6	1303.3 ± 1.5	1287.3 ± 1.5	4.298 ± 0.095
x1 = 0.2561	–	830.229 ± 0.24	826.589 ± 0.24	1316.7 ± 1.5	1300.5 ± 1.5	1284.5 ± 1.5	4.049 ± 0.089
x1 = 0.3039	–	833.292 ± 0.24	829.618 ± 0.24	1314.2 ± 1.5	1298.2 ± 1.5	1282.2 ± 1.5	3.878 ± 0.085
x1 = 0.4046	–	839.998 ± 0.24	836.231 ± 0.24	1309.1 ± 1.5	1293.1 ± 1.5	1277.4 ± 1.5	3.519 ± 0.077
x1 = 0.5013	850.582 ± 0.24	846.771 ± 0.24	842.934 ± 0.24	1304.5 ± 1.5	1288.7 ± 1.5	1273 ± 1.5	3.229 ± 0.071
x1 = 0.6004	857.95 ± 0.24	854.07 ± 0.24	850.161 ± 0.24	1300.3 ± 1.5	1284.5 ± 1.5	1268.8 ± 1.5	2.965 ± 0.064
x1 = 0.7009	865.804 ± 0.24	861.87 ± 0.24	857.881 ± 0.24	1296.5 ± 1.5	1280.5 ± 1.5	1264.7 ± 1.5	2.753 ± 0.06
x1 = 0.8027	874.181 ± 0.24	870.213 ± 0.24	866.131 ± 0.24	1293.3 ± 1.5	1277 ± 1.5	1261.1 ± 1.5	2.545 ± 0.055
x1 = 0.852	878.409 ± 0.24	874.403 ± 0.24	870.301 ± 0.24	1292 ± 1.5	1275.4 ± 1.5	1259.5 ± 1.5	2.457 ± 0.053
x1 = 0.9007	882.718 ± 0.24	878.687 ± 0.24	874.538 ± 0.24	1290.8 ± 1.5	1274.1 ± 1.5	1258 ± 1.5	2.369 ± 0.052
x1 = 0.9512	887.379 ± 0.24	883.226 ± 0.24	879.067 ± 0.24	1289.8 ± 1.5	1273 ± 1.5	1256.6 ± 1.5	2.281 ± 0.051
